This passage reports inhibition results from PMC6934184, “Selective DNA-PKcs inhibition extends the therapeutic index of localized radiotherapy and chemotherapy” (The Journal of Clinical Investigation, 2019).

In this experiment the target is T1, ABL1 H396P (Homo sapiens, UniProt P00519, H396P).
T1 construct: purchased Thermo Fisher Scientific (Life Technologies) SelectScreen
Put plainly: SelectScreen LanthaScreen. The format is binding. The following applies: read-out: % displacement. A digest of the protocol: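 Percent values come from Thermo SelectScreen profiling of NU5455, combining activity and binding assays. CSF1R was run in Z'LYTE format at Km app ATP, and CAMK1 in Adapta format with ATP listed at 10.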

In the case of `CN(C(=O)CN1CCOCC1)c1ccc2sc3c(-c4cccc5c(=O)cc(N6CC7CCC(C6)O7)oc45)cccc3c2c1` [NU5455], the inhibition at 1 µM was found to be 0.6%.
